In patent US20230416225A1, “DIAMINOPYRIMIDINE CARBOXAMIDE INHIBITORS OF HPK1” (MERCK SHARP & DOHME LLC, priority 2020, published 2023):
pIC50: −log10 of the molar value.

Target: T1, Human HPK1, catalytic domain (Homo sapiens, UniProt Q92918)
T1 construct: purchased Carna
T1 sequence (Q92918 1-346): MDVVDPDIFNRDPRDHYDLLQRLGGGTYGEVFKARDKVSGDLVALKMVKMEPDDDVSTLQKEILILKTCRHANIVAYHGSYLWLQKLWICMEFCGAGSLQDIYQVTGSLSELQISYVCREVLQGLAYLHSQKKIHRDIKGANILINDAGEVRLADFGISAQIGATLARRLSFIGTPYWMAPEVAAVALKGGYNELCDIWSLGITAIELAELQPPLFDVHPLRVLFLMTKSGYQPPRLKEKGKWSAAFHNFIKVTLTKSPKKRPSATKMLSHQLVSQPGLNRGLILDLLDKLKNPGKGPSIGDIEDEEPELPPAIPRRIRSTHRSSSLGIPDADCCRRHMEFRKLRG
Experiment: HPK1-SLP76 TR-FRET assay
Assay type: biochemical
Conditions: 75 pM HPK1, 10 uM ATP, 10 nM SLP76, 30 min compound pre-incubation

SMILES | pIC50
Cn1ncc(Nc2ncc(C(N)=O)c(Nc3cccc4c3CCNC4=O)n2)c1C(F)F [Example 7-54, 2-{[5-(difluoromethyl)-1-methyl-1H-pyrazol-4-yl]amino}-4-[(1-oxo-1,2,3,4-tetrahydroisoquinolin-5-yl)amino]pyrimidine-5-carboxamide] | 7.08
CC(C)(c1ccc(Nc2ncc(C(N)=O)c(Nc3cccc4c3CCNC4=O)n2)cc1)S(C)(=O)=O [Example 7-60, 2-({4-[2-(methylsulfonyl)propan-2-yl]phenyl}amino)-4-[(1-oxo-1,2,3,4-tetrahydroisoquinolin-5-yl)amino]pyrimidine-5-carboxamide] | 9.29
COc1nn(CC(F)(F)F)cc1Nc1ncc(C(N)=O)c(Nc2cccc3c2CCN(C)C3)n1 [Example 7-62, 2-{[3-methoxy-1-(2,2,2-trifluoroethyl)-1H-pyrazol-4-yl]amino}-4-[(2-methyl-1,2,3,4-tetrahydroisoquinolin-5-yl)amino]pyrimidine-5-carboxamide] | 7.25
COc1ccc(S(C)(=O)=O)cc1Nc1ncc(C(N)=O)c(Nc2cccc3c2CCNC3)n1 [Example 7-63, 2-{[2-methoxy-5-(methylsulfonyl)phenyl]amino}-4-[(1,2,3,4-tetrahydroisoquinolin-5-yl)amino]pyrimidine-5-carboxamide] | 6.99
CS(=O)(=O)c1ccc(Nc2ncc(C(N)=O)c(Nc3c(F)cccc3CO)n2)cc1 [Example 7-65, 4-{[2-fluoro-6-(hydroxymethyl)phenyl]amino}-2-{[4-(methylsulfonyl)phenyl]amino}py-rimidine-5-carboxamide] | 7.04
CS(=O)(=O)Cc1ccc(Nc2ncc(C(N)=O)c(Nc3ccccc3CO)n2)cc1 [Example 7-68, 4-{[2-(hydroxymethyl)phenyl]amino}-2-({4-[(methylsulfonyl)methyl]phenyl}amino)pyrimidine-5-carboxamide] | 7.85
COc1cc2c(cc1Nc1ncc(C(N)=O)c(Nc3ccccc3I)n1)CN(C)CC2 [Example 7-70, 4-[(2-iodophenyl)amino]-2-[(6-methoxy-2-methyl-1,2,3,4-tetrahydroisoquinolin-7-yl)amino]pyrimidine-5-carboxamide] | 9.82
COc1cc2c(cc1Nc1ncc(C(N)=O)c(Nc3cccc(Br)c3)n1)CN(C)CC2 [Example 7-71, 4-[(3-bromophenyl)amino]-2-[(6-methoxy-2-methyl-1,2,3,4-tetrahydroisoquinolin-7-yl)amino]pyrimidine-5-carboxamide] | 8.83
COc1cc2c(cc1Nc1ncc(C(N)=O)c(Nc3cccc(CCO)c3)n1)CNCC2 [Example 7-75, 4-{[3-(2-hydroxyethyl)phenyl]amino}-2-[(6-methoxy-1,2,3,4-tetrahydroisoquinolin-7-yl)amino]pyrimidine-5-carboxamide] | 9.00
COc1cc2c(cc1Nc1ncc(C(N)=O)c(Nc3ccccc3-n3ccnn3)n1)CN(C)CC2 [Example 7-77, 2-[(6-methoxy-2-methyl-1,2,3,4-tetrahydroisoquinolin-7-yl)amino]-4-{[2-(1H-1,2,3-triazol-1-yl)phenyl]amino}pyrimidine-5-carboxamide] | 9.64
CCn1nc(C)cc1Nc1nc(Nc2cc3c(cc2OC)CCN(C)C3)ncc1C(N)=O [Example 7-79, 4-((1-ethyl-3-methyl-1H-pyrazol-5-yl)amino)-2-((6-methoxy-2-methyl-1,2,3,4-tetrahydroisoquinolin-7-yl)amino)pyrimidine-5-carboxamide] | 6.98
COc1cc2c(cc1Nc1ncc(C(N)=O)c(Nc3c(C)nn(C)c3C)n1)CN(C)CC2 [Example 7-80, 2-((6-methoxy-2-methyl-1,2,3,4-tetrahydroisoquinolin-7-yl)amino)-4-((1,3,5-trimethyl-1H-pyrazol-4-yl)amino)pyrimidine-5-carboxamide] | 9.04
COc1cc2c(cc1Nc1ncc(C(N)=O)c(Nc3cc(C4CC4)nn3C)n1)CN(C)CC2 [Example 7-82, 4-((3-cyclopropyl-1-methyl-1H-pyrazol-5-yl)amino)-2-((6-methoxy-2-methyl-1,2,3,4-tetrahydroisoquinolin-7-yl)amino)pyrimidine-5-carboxamide] | 6.19
COc1cc2c(cc1Nc1ncc(C(N)=O)c(Nc3c(C)noc3C)n1)CN(C)CC2 [Example 7-83, 4-((3,5-dimethylisoxazol-4-yl)amino)-2-((6-methoxy-2-methyl-1,2,3,4-tetrahydroisoquinolin-7-yl)amino)pyrimidine-5-carboxamide] | 8.32
COc1cc2c(cc1Nc1ncc(C(N)=O)c(Nc3c4c(nn3C)CCC4)n1)CN(C)CC2 [Example 7-84, 2-((6-methoxy-2-methyl-1,2,3,4-tetrahydroisoquinolin-7-yl)amino)-4-((2-methyl-2,4,5,6-tetrahydrocyclopenta[c]pyrazol-3-yl)amino)pyrimidine-5-carboxamide] | 8.25
COc1cc2c(cc1Nc1ncc(C(N)=O)c(Nc3ccccc3-c3cc(C)no3)n1)CN(C)CC2 [Example 7-85, 2-((6-methoxy-2-methyl-1,2,3,4-tetrahydroisoquinolin-7-yl)amino)-4-((2-(3-methylisoxazol-5-yl)phenyl)amino)pyrimidine-5-carboxamide] | 8.03
COc1cc2c(cc1Nc1ncc(C(N)=O)c(Nc3cn(C)nc3C(F)(F)F)n1)CN(C)CC2 [Example 7-86, 2-((6-methoxy-2-methyl-1,2,3,4-tetrahydroisoquinolin-7-yl)amino)-4-((1-methyl-3-(trifluoromethyl)-1H-pyrazol-4-yl)amino)pyrimidine-5-carboxamide] | 7.93
CCn1cc(Cl)c(Nc2nc(Nc3cc4c(cc3OC)CCN(C)C4)ncc2C(N)=O)n1 [Example 7-87, 4-((4-chloro-1-ethyl-1H-pyrazol-3-yl)amino)-2-((6-methoxy-2-methyl-1,2,3,4-tetrahydroisoquinolin-7-yl)amino)pyrimidine-5-carboxamide] | 8.32
COc1cc2c(cc1Nc1ncc(C(N)=O)c(Nc3ccnn3C)n1)CN(C)CC2 [Example 7-88, 2-((6-methoxy-2-methyl-1,2,3,4-tetrahydroisoquinolin-7-yl)amino)-4-((1-methyl-1H-pyrazol-5-yl)amino)pyrimidine-5-carboxamide] | 8.04

Results, then the molecule that gave them:

pIC50 | SMILES
8.40 | NC(=O)c1cnc(Nc2cnn3c2CCCC3)nc1Nc1cccc2c1CCNC2=O [Example 7-53, 4-[(1-oxo-1,2,3,4-tetrahydroisoquinolin-5-yl)amino]-2-[(4,5,6,7-tetrahydropyrazolo[1,5-a]pyridin-3-yl)amino]pyrimidine-5-carboxamide]
7.82 | Cn1cc(Nc2ncc(C(N)=O)c(Nc3cccc4c3CCNC4=O)n2)c(OCC(F)F)n1 [Example 7-55, 2-{[3-(2,2-difluoroethoxy)-1-methyl-1H-pyrazol-4-yl]amino}-4-[(1-oxo-1,2,3,4-tetrahydroisoquinolin-5-yl)amino]pyrimidine-5-carboxamide]
6.60 | Cn1ncc(Nc2ncc(C(N)=O)c(Nc3cccc4c3CCNC4=O)n2)c1C(F)(F)F [Example 7-56, 2-{[1-methyl-5-(trifluoromethyl)-1H-pyrazol-4-yl]amino}-4-[(1-oxo-1,2,3,4-tetrahydroisoquinolin-5-yl)amino]pyrimidine-5-carboxamide]
8.88 | NC(=O)c1cnc(Nc2cnn3c2OCCC3)nc1Nc1cccc2c1CCNC2=O [Example 7-57, 2-[(6,7-dihydro-5H-pyrazolo[5,1-b][1,3]oxazin-3-yl)amino]-4-[(1-oxo-1,2,3,4-tetrahydroisoquinolin-5-yl)amino]pyrimidine-5-carboxamide]
8.44 | NC(=O)c1cnc(Nc2cc3n(n2)CCC3)nc1Nc1cccc2c1CCNC2=O [Example 7-58, 2-[(5,6-dihydro-4H-pyrrolo[1,2-b]pyrazol-2-yl)amino]-4-[(1-oxo-1,2,3,4-tetrahydroisoquinolin-5-yl)amino]pyrimidine-5-carboxamide]
8.67 | CS(=O)(=O)Cc1ccc(Nc2ncc(C(N)=O)c(Nc3cccc4c3CCNC4=O)n2)cc1 [Example 7-59, 2-({4-[(methylsulfonyl)methyl]phenyl}amino)-4-[(1-oxo-1,2,3,4-tetrahydroisoquinolin-5-yl)amino]pyrimidine-5-carboxamide]
6.96 | COc1ccc(S(C)(=O)=O)cc1Nc1ncc(C(N)=O)c(Nc2cccc3c2CCN(C)C3)n1 [Example 7-61, 2-{[2-methoxy-5-(methylsulfonyl)phenyl]amino}-4-[(2-methyl-1,2,3,4-tetrahydroisoquinolin-5-yl)amino]pyrimidine-5-carboxamide]
8.44 | CN1Cc2ccc(Nc3ncc(C(N)=O)c(Nc4cccc5c4CCNC5)n3)cc2C1=O [Example 7-64, 2-[(2-methyl-3-oxo-2,3-dihydro-1H-isoindolin-5-yl)amino]-4-[(1,2,3,4-tetrahydroisoquinolin-5-yl)amino]pyrimidine-5-carboxamide]
9.82 | COc1cc2c(cc1Nc1ncc(C(N)=O)c(Nc3cc(C(F)(F)F)cc4c3CCNC4)n1)CN(C)CC2 [Example 7-66, 2-[(6-methoxy-2-methyl-1,2,3,4-tetrahydroisoquinolin-7-yl)amino]-4-{[7-(trifluoromethyl)-1,2,3,4-tetrahydroisoquinolin-5-yl]amino}pyrimidine-5-carboxamide]
8.82 | COc1cc2c(cc1Nc1ncc(C(N)=O)c(Nc3ccc(Br)cc3)n1)CN(C)CC2 [Example 7-72, 4-[(4-bromophenyl)amino]-2-[(6-methoxy-2-methyl-1,2,3,4-tetrahydroisoquinolin-7-yl)amino]pyrimidine-5-carboxamide]
8.51 | COc1cc2c(cc1Nc1ncc(C(N)=O)c(Nc3cn(C)nc3C3CC3)n1)CN(C)CC2 [Example 7-81, 4-((3-cyclopropyl-1-methyl-1H-pyrazol-4-yl)amino)-2-((6-methoxy-2-methyl-1,2,3,4-tetrahydroisoquinolin-7-yl)amino)pyrimidine-5-carboxamide]
